From publication PMC11597817, “Modulation of Multispecific Transporters by Uncaria tomentosa Extract and Its Major Phytoconstituents” (Pharmaceutics, 2024)
Read-outs that look alike come from different tables or passages of the source.

Tests used:
Format in all cases: cell-based
ENT4 = target: T1, ENT4 (Homo sapiens, UniProt Q7RTT9); assay: Uptake inhibition assay, ENT4-overexpressing HEK293 cells; conditions: 100 µM alkaloid
T1 construct: expressed in transfected cells; host or cells: HEK293 (lentiviral transduction; cDNA synthesised by GenScript)
T1 sequence (Q7RTT9 whole entry): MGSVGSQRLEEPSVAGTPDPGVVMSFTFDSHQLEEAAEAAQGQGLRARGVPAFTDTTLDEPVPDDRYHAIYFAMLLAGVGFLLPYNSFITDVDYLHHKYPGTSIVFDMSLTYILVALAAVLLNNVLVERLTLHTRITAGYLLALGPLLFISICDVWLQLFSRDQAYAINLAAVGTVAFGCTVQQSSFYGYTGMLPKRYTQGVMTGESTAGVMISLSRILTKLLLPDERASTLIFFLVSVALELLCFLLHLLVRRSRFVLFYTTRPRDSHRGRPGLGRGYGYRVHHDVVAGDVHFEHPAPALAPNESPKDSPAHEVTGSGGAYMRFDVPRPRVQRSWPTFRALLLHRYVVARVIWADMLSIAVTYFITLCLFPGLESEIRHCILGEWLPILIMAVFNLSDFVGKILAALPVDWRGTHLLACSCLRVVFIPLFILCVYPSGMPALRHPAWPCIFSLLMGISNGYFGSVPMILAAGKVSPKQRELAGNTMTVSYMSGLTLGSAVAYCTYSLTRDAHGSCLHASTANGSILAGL
Procedure: (§1) The human embryonic kidney 293 (HEK293) cell line was purchased from Invitrogen/ThermoFisher (Waltham, MA, USA). Madin–Darby canine kidney II (MDCKII) wild type cells were obtained from the European Collection of Authenticated Cell Cultures (ECACC catalog no. 00062107). […]
(§2) Plated cells were preincubated with a transport buffer (HBSS) containing 30 or 150 µg/mL of UT extract or 100 µM of isopteropodine, mitraphylline, or uncarine D for 15 min at an appropriate temperature. […] For radiolabeled substrates, accumulation was measured by liquid scintillation counting (MicroBeta Scintillation Counter, PerkinElmer).
(§3) The transporter-mediated uptake and ATP-dependent transport were determined by subtracting the activity of the control cell/transporter abundant-membrane in the presence of AMP from the activity of the transporter-overexpressing cell/transporter-abundant membrane in the presence of ATP. The relative transporter-specific accumulation was expressed as the percent of DMSO activity. […] Confidence intervals (CIs) of 95% were also determined. […]

OATP1A2 = target: T2, OATP1A2 (Homo sapiens, UniProt P46721); assay: Uptake inhibition assay, OATP1A2-overexpressing HEK293 cells; conditions: oxindole alkaloids; substrate E3S; read-out: IC50 (95% CI of IC50)
T2 construct: expressed in transfected cells; host or cells: HEK293 (lentiviral transduction; cDNA synthesised by GenScript)
T2 sequence (P46721 whole entry): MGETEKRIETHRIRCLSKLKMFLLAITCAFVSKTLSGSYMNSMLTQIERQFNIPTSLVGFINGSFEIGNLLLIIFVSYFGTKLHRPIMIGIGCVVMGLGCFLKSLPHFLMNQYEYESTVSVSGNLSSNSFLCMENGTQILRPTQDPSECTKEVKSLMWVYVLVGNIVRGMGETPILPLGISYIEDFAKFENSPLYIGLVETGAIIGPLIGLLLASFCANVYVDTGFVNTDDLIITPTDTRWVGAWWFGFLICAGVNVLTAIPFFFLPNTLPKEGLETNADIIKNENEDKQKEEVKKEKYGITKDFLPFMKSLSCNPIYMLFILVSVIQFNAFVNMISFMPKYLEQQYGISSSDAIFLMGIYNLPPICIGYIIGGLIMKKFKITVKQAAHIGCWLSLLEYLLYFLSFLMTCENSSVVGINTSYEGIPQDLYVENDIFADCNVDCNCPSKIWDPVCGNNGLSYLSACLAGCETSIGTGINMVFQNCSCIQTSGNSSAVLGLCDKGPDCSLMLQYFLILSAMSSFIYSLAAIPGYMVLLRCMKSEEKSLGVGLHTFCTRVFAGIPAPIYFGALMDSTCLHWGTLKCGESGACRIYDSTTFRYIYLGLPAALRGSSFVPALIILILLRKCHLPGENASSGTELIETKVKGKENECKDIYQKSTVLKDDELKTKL
Procedure: as §1, §2, §3

SGLT2 = target: T3, SGLT2 (Homo sapiens, UniProt P31639); assay: Uptake inhibition assay, SGLT2-overexpressing HEK293 cells
T3 construct: expressed in transfected cells; host or cells: HEK293 (lentiviral transduction; cDNA synthesised by GenScript)
T3 sequence (P31639 whole entry): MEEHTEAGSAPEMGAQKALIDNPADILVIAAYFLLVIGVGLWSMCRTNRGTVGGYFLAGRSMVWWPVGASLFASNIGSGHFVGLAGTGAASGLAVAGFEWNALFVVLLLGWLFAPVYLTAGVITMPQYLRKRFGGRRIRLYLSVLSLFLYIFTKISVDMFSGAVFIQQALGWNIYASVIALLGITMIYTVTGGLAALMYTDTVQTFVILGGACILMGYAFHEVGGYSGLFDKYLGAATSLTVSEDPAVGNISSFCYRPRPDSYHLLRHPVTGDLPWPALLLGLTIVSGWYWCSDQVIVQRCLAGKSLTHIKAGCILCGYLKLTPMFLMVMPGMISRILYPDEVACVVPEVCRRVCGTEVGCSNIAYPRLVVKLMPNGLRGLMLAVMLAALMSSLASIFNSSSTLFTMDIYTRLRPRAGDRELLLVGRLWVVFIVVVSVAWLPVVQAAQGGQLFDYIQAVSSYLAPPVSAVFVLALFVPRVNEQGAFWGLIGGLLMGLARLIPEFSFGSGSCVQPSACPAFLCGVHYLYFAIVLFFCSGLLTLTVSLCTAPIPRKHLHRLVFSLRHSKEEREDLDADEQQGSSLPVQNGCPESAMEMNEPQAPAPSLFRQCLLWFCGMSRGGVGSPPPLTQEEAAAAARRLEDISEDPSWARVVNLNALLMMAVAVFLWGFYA
Procedure: as §1, §2, §3

OATP1B3 = target: T4, OATP1B3 (Homo sapiens, UniProt Q9NPD5); assay: Uptake inhibition assay, OATP1B3-overexpressing HEK293 cells; conditions: oxindole alkaloids, substrate CCK-8, read-out: IC50 (95% CI of IC50)
T4 construct: expressed in transfected cells; host or cells: HEK293 (lentiviral transduction; cDNA synthesised by GenScript)
T4 sequence (Q9NPD5 whole entry): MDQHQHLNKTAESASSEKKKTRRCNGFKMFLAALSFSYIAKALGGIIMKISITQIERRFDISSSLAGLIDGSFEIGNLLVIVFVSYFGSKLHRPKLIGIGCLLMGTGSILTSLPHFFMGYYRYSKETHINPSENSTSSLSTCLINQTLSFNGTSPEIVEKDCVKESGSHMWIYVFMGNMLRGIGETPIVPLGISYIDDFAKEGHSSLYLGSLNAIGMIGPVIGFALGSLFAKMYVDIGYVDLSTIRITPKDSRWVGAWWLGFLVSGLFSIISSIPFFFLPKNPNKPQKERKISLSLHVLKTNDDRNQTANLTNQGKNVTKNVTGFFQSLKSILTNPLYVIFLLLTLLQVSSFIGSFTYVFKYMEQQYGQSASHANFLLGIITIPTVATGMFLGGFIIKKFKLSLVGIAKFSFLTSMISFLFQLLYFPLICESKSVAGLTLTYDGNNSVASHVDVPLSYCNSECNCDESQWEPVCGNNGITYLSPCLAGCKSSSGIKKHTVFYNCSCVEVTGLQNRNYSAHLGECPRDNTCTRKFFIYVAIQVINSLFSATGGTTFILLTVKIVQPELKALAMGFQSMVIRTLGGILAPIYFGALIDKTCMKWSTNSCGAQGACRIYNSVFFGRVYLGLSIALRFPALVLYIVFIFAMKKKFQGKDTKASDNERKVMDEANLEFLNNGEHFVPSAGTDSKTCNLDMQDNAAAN
Procedure: as §1, §2, §3

OATP2B1 = target: T5, OATP2B1 (Homo sapiens, UniProt O94956); assay: Uptake inhibition assay, OATP2B1-overexpressing HEK293 cells; conditions: oxindole alkaloids, substrate E3S, read-out: IC50 (95% CI of IC50)
T5 construct: expressed in transfected cells; host or cells: HEK293 (lentiviral transduction; cDNA synthesised by GenScript)
T5 sequence (O94956 whole entry): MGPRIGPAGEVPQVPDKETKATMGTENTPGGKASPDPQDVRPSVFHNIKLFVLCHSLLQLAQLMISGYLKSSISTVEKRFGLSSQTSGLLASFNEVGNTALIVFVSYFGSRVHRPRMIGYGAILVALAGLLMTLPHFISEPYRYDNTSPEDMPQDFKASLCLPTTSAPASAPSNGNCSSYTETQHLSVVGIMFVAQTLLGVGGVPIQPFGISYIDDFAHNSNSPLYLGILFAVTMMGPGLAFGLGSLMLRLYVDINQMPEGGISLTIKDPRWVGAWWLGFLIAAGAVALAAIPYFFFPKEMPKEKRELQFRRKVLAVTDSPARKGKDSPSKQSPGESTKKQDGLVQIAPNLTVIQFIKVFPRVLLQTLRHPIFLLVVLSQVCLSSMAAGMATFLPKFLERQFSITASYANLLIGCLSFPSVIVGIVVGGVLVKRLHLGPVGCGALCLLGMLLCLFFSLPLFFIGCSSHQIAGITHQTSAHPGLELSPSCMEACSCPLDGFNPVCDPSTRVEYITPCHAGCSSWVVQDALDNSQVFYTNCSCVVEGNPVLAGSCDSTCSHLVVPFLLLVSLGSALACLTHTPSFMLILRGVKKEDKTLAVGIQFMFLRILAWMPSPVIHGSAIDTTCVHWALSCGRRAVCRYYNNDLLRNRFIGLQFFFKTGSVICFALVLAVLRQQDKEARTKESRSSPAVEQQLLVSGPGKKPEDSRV
Procedure: as §1, §2, §3

OCT2 = target: T6, OCT2 (Homo sapiens, UniProt O15244); assay: Uptake inhibition assay, OCT2-overexpressing HEK293 cells; conditions: oxindole alkaloids; substrate metformin; read-out: IC50 (95% CI of IC50)
T6 construct: expressed in transfected cells; host or cells: HEK293 (lentiviral transduction; cDNA synthesised by GenScript)
T6 sequence (O15244 whole entry): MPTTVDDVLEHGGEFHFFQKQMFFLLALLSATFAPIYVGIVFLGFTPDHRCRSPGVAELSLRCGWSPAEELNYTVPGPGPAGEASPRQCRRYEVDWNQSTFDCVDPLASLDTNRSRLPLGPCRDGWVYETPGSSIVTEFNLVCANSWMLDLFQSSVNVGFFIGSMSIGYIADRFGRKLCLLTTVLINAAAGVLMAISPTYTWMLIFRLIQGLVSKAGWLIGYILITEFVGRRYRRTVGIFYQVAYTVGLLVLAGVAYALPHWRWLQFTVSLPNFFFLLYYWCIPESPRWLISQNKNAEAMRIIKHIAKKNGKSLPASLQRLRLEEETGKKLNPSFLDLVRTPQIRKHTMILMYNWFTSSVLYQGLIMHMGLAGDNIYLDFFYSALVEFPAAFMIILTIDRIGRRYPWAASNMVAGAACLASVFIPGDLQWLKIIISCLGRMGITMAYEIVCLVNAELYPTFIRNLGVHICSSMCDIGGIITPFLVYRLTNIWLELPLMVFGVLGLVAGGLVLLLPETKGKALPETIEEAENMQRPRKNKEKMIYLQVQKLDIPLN
Procedure: as §1, §2, §3

ENT1 = target: T7, ENT1 (Homo sapiens, UniProt Q99808); assay: Uptake inhibition assay, ENT1-overexpressing MDCKII cells; conditions: for IC50: oxindole alkaloids, substrate uridine, read-out: IC50 (95% CI of IC50)
T7 construct: expressed in transfected cells; host or cells: MDCKII (lentiviral transduction; cDNA synthesised by GenScript)
T7 sequence (Q99808 1-456): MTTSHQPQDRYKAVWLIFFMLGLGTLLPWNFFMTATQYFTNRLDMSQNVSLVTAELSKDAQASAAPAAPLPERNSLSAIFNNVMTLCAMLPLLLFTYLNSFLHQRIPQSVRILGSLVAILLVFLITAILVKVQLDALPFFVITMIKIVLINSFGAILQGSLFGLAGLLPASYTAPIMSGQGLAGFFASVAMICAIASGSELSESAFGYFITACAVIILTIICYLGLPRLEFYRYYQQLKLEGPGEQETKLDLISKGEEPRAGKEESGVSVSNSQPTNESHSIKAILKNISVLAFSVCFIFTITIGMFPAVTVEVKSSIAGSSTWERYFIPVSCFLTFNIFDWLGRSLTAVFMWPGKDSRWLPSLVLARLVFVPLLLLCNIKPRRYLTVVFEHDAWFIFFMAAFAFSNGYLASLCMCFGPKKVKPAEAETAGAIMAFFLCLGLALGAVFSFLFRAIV
Source text: The human embryonic kidney 293 (HEK293) cell line was purchased from Invitrogen/ThermoFisher (Waltham, MA, USA). Madin–Darby canine kidney II (MDCKII) wild type cells were obtained from the European Collection of Authenticated Cell Cultures (ECACC catalog no. 00062107). HEK293 cells overexpressing the human uptake OATP1B1 (NCBI Reference Sequence: NM_006446.4), OATP1B3 (NM_019844), OATP2B1 (NM_007256), OATP1A2 (NM_134431), OAT1-3 (BC033682.1; NM_006672.3; BC022387), OCT1-3 (BC126364.1; NM_003058; NM_021977), OCTN1 (NM_003059.3), NTCP (NM_003049.3), MATE1 (NM_018242.3), MATE2K (NM_001099646.2), ENT4 (NM_001040661.1), SGLT2 (AJ133127.1), ASCT1/2 (NM_003038.5; NM_005628.3), LAT1/2 (NM_003486.6; NM_012244.4), and THTR1/2 (NM_006996; NM_025243) and mock and human efflux BCRP (NM_004827.2), BSEP (NM_003742.2), MDR1 (NM_000927.4), and MRP1-5 (NM_004996; NM_000392.4; BC137347.1; NM_005845.4; NM_005688.2) transporters as well as MDCKII overexpressing human ENT1/2 (NM_001078177; NM_001532.2) and URAT1 (BC053348) transporters were created by lentiviral transduction. The cDNA encoding respective transporters were synthetized and cloned by GenScript (Piscataway, NJ, USA). […]
as §2, §3

SMILES	inhibitory effect on transporter-specific transport (ENT4)	IC50 (OATP1A2)	decrease of transporter-mediated transport (SGLT2; at 100 µM)	IC50 (SGLT2; oxindole alkaloids, substrate AMG, read-out: IC50 (95% CI of IC50))	IC50 (OATP1B3; listed as Isopteropodine)	IC50 (OATP1B3)	IC50 (OATP2B1; listed as Isopteropodine)	IC50 (OATP2B1)	IC50 (OCT2)	transporter-mediated substrate accumulation (ENT1; in the presence of the alkaloid (100 µM, Figure 3))	IC50 (ENT1; listed as Mitraphylline)	IC50 (ENT1)
COC(=O)C1=CO[C@@H](C)[C@@H]2CN3CC[C@@]4(C(=O)Nc5ccccc54)[C@@H]3C[C@H]12 [isopteropodine]	significantly inhibited	36.1 µM	around 50%	72.7 µM	24.6 µM	24.6 µM	45.4 µM	45.4 µM	16.1 µM	–	–	–
COC(=O)C1=CO[C@@H](C)[C@H]2CN3CC[C@]4(C(=O)Nc5ccccc54)[C@@H]3C[C@H]12 [mitraphylline]	–	–	–	–	–	–	–	–	–	below 50%	49.6 µM	49.6 µM
